This note sets out measurements from patent publication EP1038864A1, “NOVEL METALLOPROTEINASE INHIBITORS” (FUJI YAKUHIN KOGYO KABUSHIKI KAISHA, priority 1997, dated 1999).

Like-named read-outs stand apart in the source and are kept apart here.

Series [1] concerns the target T1, human fibroblast collagenase (Homo sapiens, UniProt P03956).
T1 sequence (P03956 100-469): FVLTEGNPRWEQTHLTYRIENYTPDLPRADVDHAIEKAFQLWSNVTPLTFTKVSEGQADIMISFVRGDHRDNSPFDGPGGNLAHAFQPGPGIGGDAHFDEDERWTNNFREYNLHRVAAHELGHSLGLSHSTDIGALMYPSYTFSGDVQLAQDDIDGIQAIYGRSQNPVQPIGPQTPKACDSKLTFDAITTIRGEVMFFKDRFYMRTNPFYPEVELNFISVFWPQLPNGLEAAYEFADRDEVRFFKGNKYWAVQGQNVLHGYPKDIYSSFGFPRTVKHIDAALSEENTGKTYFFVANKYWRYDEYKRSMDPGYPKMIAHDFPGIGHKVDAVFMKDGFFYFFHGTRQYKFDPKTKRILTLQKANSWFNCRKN
In words: Assay for inhibition of collagenase (fluorescein-labeled bovine type I collagen substrate). The series is classed as biochemical. As to the method: (§1) Described below are assays for biological activities of the compounds according to the present invention, formulations, dosage forms and dosage levels thereof, and miscellaneous matters. The efficacy of the compounds represented by the formula (I) according to the present invention as inhibitors of human fibroblast collagenase (metalloproteinase involved in the breakdown of tissues) is determined by a procedure based on the method of Y. Murawaki et al., Journal of Hepatology, 18, p328-334 (1993). The efficacy of the compounds (I) of this invention as inhibitors of human fibroblast stromelysin is determined by a procedure based on the method of S. S. Twining, Anal. Biochem., 143, p30 (1984). The assay results obtained are shown hereinbelow, together with biological examples which illustrate embodiments of the assay protocols.
The efficacy of compounds of the present invention to act as inhibitors of human fibroblast collagenase was determined by the procedure of Y. Murawaki et al. (Journal of Hepatology, 18, p.328-334, 1993), compared with a reference compound.
Procollagenase was activated by incubation with 2 mM 4-aminophenylmercuric acetate (APMA) at 35°C for 2 hours. The inhibition was assayed using, as a substrate, fluorescein-labeled bovine type I collagen. To a solution of the substrate (0.5 mg/ml) in a 50 mM Tris-HCl buffer, pH 7.5, containing 0.4M aqueous sodium chloride and 10 mM aqueous […] was added the activated collagenase. The resultant solution was incubated at 35°C for 2 hours. The digestion of the substrate with the enzyme was stopped by addition of 80 mM o-phenanthroline, followed by addition of a porcine elastase solution formed by dissolving 25 µg/ml porcine elastase in the aforementioned Tris-HCl buffer. The mixture was incubated at 37°C for 10 minutes. To the resulting solution was added 70% ethanol, and a 170 mM Tris-HCl buffer, pH 9.5, containing 0.67M aqueous sodium chloride. Undigested substrates were precipitated by centrifugation at 3000 x g for 20 minutes. The supernatant was collected and the fluorescence was read using an excitation wavelength of 495 nm and an emission wavelength of 520 nm. The inhibitory potency of the compounds was calculated. […] The resulting assay data for representative examples are shown in Table 1, compared with the reference compound. […]

For series [2], the target named is human fibroblast stromelysin (Homo sapiens, UniProt P08254). The experiment in a line: Assay for inhibition of stromelysin (fluorescein-labeled casein substrate). The series is classed as biochemical. As to the method: as §1
Chain of human fibroblast stromelysin (P08254 100-477): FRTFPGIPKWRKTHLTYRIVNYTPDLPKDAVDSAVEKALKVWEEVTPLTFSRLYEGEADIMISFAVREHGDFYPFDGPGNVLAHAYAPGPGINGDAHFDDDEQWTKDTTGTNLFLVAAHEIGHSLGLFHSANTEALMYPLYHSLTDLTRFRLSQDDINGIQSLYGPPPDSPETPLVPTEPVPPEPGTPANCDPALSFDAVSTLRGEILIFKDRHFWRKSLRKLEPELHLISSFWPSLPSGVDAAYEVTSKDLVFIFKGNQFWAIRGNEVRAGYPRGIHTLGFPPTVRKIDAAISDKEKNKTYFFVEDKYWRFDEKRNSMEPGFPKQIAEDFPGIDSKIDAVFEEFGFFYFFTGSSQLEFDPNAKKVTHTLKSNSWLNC
The efficacy of compounds of the present invention to act as inhibitors of human fibroblast stromelysin was determined by the procedure of Twining (Anal. Biochem., 143, p.30, 1984), compared with a reference compound.
Prostromelysin was activated by incubation with 20 µg/ml human plasmin at 37°C for 2 hours, and the reaction was stopped by addition of 2.8 mg/ml aqueous diisopropyl fluorophosphate. The inhibition was assayed using, as a substrate, fluorescein-labeled casein. To a solution of the substrate (1 mg/ml) in a 50 mM Tris-HCl buffer, pH 7.8, containing 10mM aqueous calcium chloride was added the activated stromelysin. The resultant solution was incubated at 37°C for 2 hours. The digestion of the substrate with the enzyme was stopped by addition of 5% trichloroacetic acid. Undigested substrates were precipitated by centrifugation at 3000 x g for 20 minutes. The supernatant was collected, followd by additon of a 0.5M Tris-HCl buffer, pH 8.5. The fluorescence was read using an excitation wavelength of 495 nm and an emission wavelength of 520 nm. The inhibitory potency of the compounds was calculated. […] The resulting assay data for representative examples are shown in Table 2, compared with the reference compound.

A further series addresses TNF-α Convertase (Homo sapiens, UniProt P78536). In words: Assay for inhibition of TNF-α production in LPS-stimulated, PMA-differentiated U937 cells.
Another series can be described thus: in vivo. Conditions: rat, po, 100 mg/kg.
Setting [3] is: activated human fibroblast procollagenase, 35°C, 2 hours, pH 7.5, read-out: Inhibition of MMP-1.
Setting [4] is: plasmin-activated human fibroblast prostromelysin, 37°C, 2 hours, pH 7.8, read-out: Inhibition of MMP-3.
[5] abbreviates: read-out: Inhibition of MMP-3, plasmin-activated human fibroblast prostromelysin, 37°C, 2 hours, pH 7.8.

Chain of TNF-α Convertase (P78536 215-824): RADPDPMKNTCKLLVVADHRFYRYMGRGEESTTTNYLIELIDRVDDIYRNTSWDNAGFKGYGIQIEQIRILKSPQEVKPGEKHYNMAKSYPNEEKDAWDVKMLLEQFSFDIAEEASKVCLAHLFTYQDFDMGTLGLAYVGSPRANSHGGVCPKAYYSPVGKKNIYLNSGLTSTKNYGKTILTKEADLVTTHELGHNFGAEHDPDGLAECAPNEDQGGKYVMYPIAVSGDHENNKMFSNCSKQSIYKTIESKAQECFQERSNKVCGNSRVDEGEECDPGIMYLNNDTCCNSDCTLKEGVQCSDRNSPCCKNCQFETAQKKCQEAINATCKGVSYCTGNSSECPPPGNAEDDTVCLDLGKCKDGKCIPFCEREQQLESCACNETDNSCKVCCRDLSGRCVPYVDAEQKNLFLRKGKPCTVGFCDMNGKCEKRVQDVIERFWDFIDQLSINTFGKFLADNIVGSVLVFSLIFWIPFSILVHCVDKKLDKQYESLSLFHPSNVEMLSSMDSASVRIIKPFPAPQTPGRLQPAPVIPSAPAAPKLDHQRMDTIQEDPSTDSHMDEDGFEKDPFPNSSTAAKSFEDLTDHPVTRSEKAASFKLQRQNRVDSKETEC
Description for TNF-α Convertase: Human monocytic leukemia cell line U937 (human histiocytic lymphoma cell line U937) cells were cultured in RPMI 1640 (Nissui Pharmaceutical Co., Ltd., Japan) supplemented with 5% fetal calf serum (FCS; IBL, Japan) in an incubator at 37°C under 5% CO2, then transferred to multiplates at a density of 1 x 10^6 cells/1 ml/well, and incubated overnight in the presence of 10^-7 M phorbol 12-myristate 13-acetate (Wako Pure Chemical Industries, Ltd., Japan) to form differentiated macrophage-like cells. To the resultant cells was added E. coli O127:B8 lipopolysaccaride (LPS, 0.1 µg/ml; Sigma) alone or along with each compound of the present invention, and the treated cells were then incubated for 6 hours in an incubator under 5% CO2 at 37°C. After the incubation, the cultures were collected and centrifuged at 3000 rpm for 10 minutes to give supernatants which were diluted with purified water and then assayed using a TNF-α assay kit, Genzyme (Table 3).
Description for in vivo: Each compound of the present invention was dissolved in distilled water for injection and orally administered to rats (Lewis strain line, male, body weight: about 200 g) at a dose of 100mg/kg. From 30 minutes to 4 hours after the administration, a series of blood chronologically collected from rat fundus oculi were centrifuged (3000rpm for 10 minutes at 4°C) to give plasma samples. Each plasma sample (200 µl) was filtered through an ultrafiltration membrane by centrifugation at 1500 x G for 3 minutes using a micropartition UF unit (Centrifree-MPS-3: 30,000 MW cut-off, Amicon Corp., Beverly, MA). […] The reaction was stopped by adding 900 µl of 3% aqueous acetic acid to the reaction mixture. The fluorescence of the resulting solution was read using an excitation wavelength of 325 nm and an emission wavelength of 393 nm. The concentration of each test compound in rat plasma samples was calculated using a standard curve which was prepared based on a variety of doses.

With `CNC(=O)[C@H](CCCNC(=N)N)NC(=O)[C@H](CC(C)C)C(CC(C)C)C(=O)NO` (single isomer, unassigned) [Compound No. 24, N^a-[4-(Hydroxyamino)-2(R),3(R or S)-diisobutylsuccinyl]-L-arginine N-methylamide · 1 acetate], the IC50 came out at 0.005 µM in series [1], 0.018 µM in series [2] and 0.48 µM against TNF-α Convertase.
As to `CC(=N)NCCCCC(NC(=O)C(CC(C)C)C(CCCc1ccccc1)C(=O)NO)C(=O)NCCO` (single isomer, unassigned) [Compound No. 36, N^a-[4-(Hydroxyamino)-2(R)-isobutyl-3(R or S)-(3-phenylpropyl)-succinyl]-N^e-acetimidoyl-L-lysine N-(2-hydroxyethyl)amide · 1 acetate], the IC50 in series [1] (setting [3]) is 0.014 µM; in series [2] (setting [4]), 0.009 µM.
In the case of `CNC(=O)C(CCCNC(=N)N)NC(=O)C(CC(C)C)C(Cc1ccc(CNS(=O)(=O)c2ccc(C)cc2)cc1)C(=O)NO` (single isomer, unassigned) [Compound No. 50, N^a-[4-(Hydroxyamino)-2(R)-isobutyl-3(R or S)-[p-(p-toluenesulfonamidomethyl)benzyl]succinyl]-L-arginine N-methylamide · 1 acetate], the IC50 in series [1] (setting [3]) worked out at 0.013 µM; in series [2] (setting [4]), 0.009 µM; against TNF-α Convertase, 0.599 µM.
Taken in the same sequence, the figures for `CNC(=O)C(CCCNC(=N)N)NC(=O)C(CC(C)C)C(Cc1ccc(CN2C(=O)c3ccccc3C2=O)cc1)C(=O)NO` (single isomer, unassigned) [Compound No. 51, N^a-[4-(Hydroxyamino)-2(R)-isobutyl-3(R or S)-(p-phthalimidomethylbenzyl)succinyl]-L-arginine N-methylamide · 1 acetate] were 0.009 µM, 0.002 µM and 0.426 µM.
`CNC(=O)[C@H](CCCCN)NC(=O)[C@H](CC(C)C)C(CCCc1ccc(CN)cc1)C(=O)NO` (single isomer, unassigned) [Compound No. 61, N^a-[4-(Hydroxyamino)-2(R)-isobutyl-3(R or S)-(3-(p-aminomethylphenyl)propyl]succinyl]-L-lysine N-methylamide· 2 acetate]: the IC50 was found to be 0.023 µM in series [2] (setting [5]) and 1.1 µM at TNF-α Convertase (read-out: Inhibition of TACE, U937 cells, LPS 0.1 µg/ml, 6 hours, TNF-α in supernatant by assay kit). Moreover, the AUC at 4 h in “in vivo” amounted to 13800 ng·h/mL.
With `CCCCOCCC(C(=O)NO)[C@@H](CC(C)C)C(=O)N[C@@H](CCCCN)C(=O)NC` (single isomer, unassigned) [Compound No. 69, N^a-[4-(Hydroxyamino)-2(R)-isobutyl-3(R or S)-(2-n-butyloxyethyl)succinyl]-L-lysine N-methylamide· 1 acetate], in series [2] (setting [5]), the IC50 amounted to 0.02 µM. In “in vivo”, this molecule registered an AUC at 4 h of 3340 ng·h/mL.
`CNC(=O)[C@H](CCCCN)NC(=O)[C@H](CC(C)C)C(CCCc1cccc(C(=O)OC)c1)C(=O)NO` (single isomer, unassigned) [Compound No. 71, N^a-[4-(Hydroxyamino)-2(R)-isobutyl-3(R or S)-[3-(m-methoxycarbonylphenyl)propyl]succinyl]-L-lysine N-methylamide· 1 acetate]: the IC50 in series [1] (setting [3]) amounted to 0.004 µM; at TNF-α Convertase, 0.352 µM.
`CNC(=O)[C@H](CCCCN)NC(=O)[C@H](CC(C)C)C(CCCc1ccc(O)cc1)C(=O)NO` (single isomer, unassigned) [Compound No. 72, N^a-[4-(Hydroxyamino)-2(R)-isobutyl-3(R or S)-[3-(p-hydroxyphenyl)propyl]succinyl]-L-lysine N-methylamide· 1 acetate] returned an AUC at 4 h in the series “in vivo” of 4040 ng·h/mL. In addition, the IC50 at TNF-α Convertase was 0.25 µM.
With `CNC(=O)C(CCCN)NC(=O)C(CC(C)C)C(CCCc1ccc(CNC(=N)N)cc1)C(=O)NO` (single isomer, unassigned) [Compound No. 81, N^a-[4-(Hydroxyamino)-2(R)-isobutyl-3(R or S)-[3-(p-guanidomethylphenyl)propyl]succinyl]-L-ornithine N-methylamide · 2 acetate], the IC50 is 0.013 µM in series [1] (setting [3]) and 0.737 µM on TNF-α Convertase.
As for `CNC(=O)C(CCCCN)NC(=O)C(CC(C)C)C(CCCN1C(=O)N(C)C(C)(C)C1=O)C(=O)NO` (single isomer, unassigned) [Compound No. 82, N^a-[4-(Hydroxyamino)-2(R)-isobutyl-3(R or S)-(3-(3,4,4-trimethyl-2,5-dioxo-imidazolidin-1-yl)propyl]succinyl]-L-lysine N-methylamide], in series [1] (setting [3]), the IC50 amounted to 0.004 µM.
Still for that read-out and setting: the figure for `CC(C)CC(C(=O)NO)[C@@H](CC(C)C)C(=O)N[C@@H](Cc1ccc(CN)cc1)C(=O)NCCC(=O)O` (single isomer, unassigned) [Compound No. 84, N^a-[4-(Hydroxyamino)-2(R),3(R or S)-diisobutylsuccinyl]-4'-aminomethyl-L-phenylalanine N-(2-carboxyethyl)amide· 1 acetate] is 0.011 µM; for `CNC(=O)C(CCCNC(=N)N)NC(=O)C(CC(C)C)C(C)C(=O)NO` [Compound No. 25, N^a-[4-(Hydroxyamino)-2(R)-isobutyl-3(RS)-methylsuccinyl]-L-arginine N-methylamide · 1 acetate] it is 0.01 µM.
Take `CNC(=O)C(CCNC(=N)N)NC(=O)C(CC(C)C)C(CC(C)C)C(=O)NO` [Compound No. 27, N^4-[3-Guanidino-1(S)-methylcarbamoylpropyl]-N^1-hydroxy-3(R),2(RS)-diisobutylsuccinamide · 1 acetate]: the IC50 in series [1] (setting [3]) is 0.007 µM; in series [2] (setting [4]) it was 0.06 µM.
On to `CNC(=O)C(CCCCNC(C)=N)NC(=O)C(CC(C)C)C(CCCc1ccccc1)C(=O)NO` [Compound No. 30, N^a-[4-(Hydroxyamino)-2(R)-isobutyl-3(RS)-(3-phenylpropyl)-succinyl]-N^e-acetimidoyl-L-lysine N-methylamide · 1 acetate], for which the results for the IC50 in series [1] (setting [3]) and in series [2] were 0.01 µM and 0.012 µM, respectively.
On to `CC(=N)NCc1ccc(CC(NC(=O)C(CC(C)C)C(CC(C)C)C(=O)NO)C(=O)NCCO)cc1` [Compound No. 91, N^a-[4-(Hydroxyamino)-2(R),3(RS)-diisobutylsuccinyl]-4'-acetimidoyliminomethyl-L-phenylalanine N-(2-hydroxyethyl)amide· 2 acetate], for which the IC50 in series [1] (setting [3]) was found to be 0.017 µM.
Same read-out and setting: the figure for `CCCOC[C@H](C(=O)N[C@@H](Cc1ccc(OC)cc1)C(=O)NC)[C@H](CSC(C)C)C(=O)NO` [Reference Compound No. 1, N-[4-(N-hydroxyamino)-2(R)-n-propyloxymethyl-3(S)-isopropyl-thiomethylsuccinyl)-O-methyl-L-tyrosine-N-methylamide, reference compound] is 0.011 µM.
`CNC(=O)[C@@H](NC(=O)[C@H](CC(C)C)[C@H](O)C(=O)NO)C(C)(C)C` [Reference Compound No. 2, reference compound] came in with an AUC at 4 h in the series “in vivo” of 1570 ng·h/mL.
